Tested on: PANC-1
Assay: Induction of apoptosis in human PANC1 cells assessed as accumulation at sub-G0/G1 phase at 10 uM after 48 hrs by propidium iodide staining based flow cytometry (reference value: 0.2 to 2.9%)
Type: functional
Settings: not given

Question: For `CCCCCCCCCCCCCCCCOC[C@H]1NC[C@H](O)[C@@H]1O`, which Activity is on record?
Answer: The Activity was 3.5%.

Tested on: PK9
Assay: Induction of apoptosis in human PK9 cells assessed as accumulation at sub-G0/G1 phase at 10 uM after 24 hrs by propidium iodide staining based flow cytometry (reference value: 2.2%)
Type: functional
Settings: not given

Question: Which Activity does the source give for `CCCCCCCCCCCCCCCCOC[C@H]1NC[C@H](O)[C@@H]1O` here?
Answer: Its Activity is 2%.

Tested on: BXPC-3
Assay: Induction of apoptosis in human BxPC3 cells assessed as accumulation at sub-G0/G1 phase harboring pSFFV-Bcl-XL at 20 uM after 48 hrs by propidium iodide staining based flow cytometry (reference value: 1.3%)
Type: functional
Settings: not given

Question: Which Activity does the source give for `CCCCCCCCCCCCCCCCOC[C@H]1NC[C@H](O)[C@@H]1O` here?
Answer: Its Activity is 4.8%.

Tested on: PANC-1
Assay: Induction of apoptosis in human PANC1 cells assessed as accumulation at sub-G0/G1 phase at 20 uM after 72 hrs by propidium iodide staining based flow cytometry (reference value: 1.6 to 3.2%)
Type: functional
Settings: not given

Question: Which Activity does the source give for `CCCCCCCCCCCCCCCCOC[C@H]1NC[C@H](O)[C@@H]1O` here?
Answer: Its Activity is 12.8%.

Tested on: not listed separately
Assay: Induction of apoptosis in HPNE cells assessed as accumulation at sub-G0/G1 phase at 10 uM after 24 hrs by propidium iodide staining based flow cytometry (reference value: 0.6%)
Type: cell-based
Settings: human

Question: For `CCCCCCCCCCCCCCCCOC[C@H]1NC[C@H](O)[C@@H]1O`, which Activity is on record?
Answer: Its Activity is 2.6%.

Tested on: BXPC-3
Assay: Induction of apoptosis in human BxPC3 cells assessed as accumulation at sub-G0/G1 phase harboring pSFFV-Bcl-XL at 20 uM after 24 hrs by propidium iodide staining based flow cytometry (reference value: 1.2%)
Type: functional
Settings: not given

Question: For `CCCCCCCCCCCCCCCCOC[C@H]1NC[C@H](O)[C@@H]1O`, which Activity is on record?
Answer: The Activity was 4.4%.

Tested on: PK9
Assay: Induction of apoptosis in human PK9 cells assessed as accumulation at sub-G0/G1 phase at 20 uM after 72 hrs by propidium iodide staining based flow cytometry (reference value: 4%)
Type: functional
Settings: not given

Question: With `CCCCCCCCCCCCCCCCOC[C@H]1NC[C@H](O)[C@@H]1O` as the compound, how does the Activity read?
Answer: Its Activity is 2.8%.

Tested on: not listed separately
Assay: Induction of apoptosis in HPNE cells assessed as accumulation at sub-G0/G1 phase at 10 uM after 48 hrs by propidium iodide staining based flow cytometry (reference value: 0.7%)
Type: cell-based
Settings: human

Question: Which Activity does the source give for `CCCCCCCCCCCCCCCCOC[C@H]1NC[C@H](O)[C@@H]1O` here?
Answer: The Activity was 2.2%.

Tested on: PANC-1
Assay: Induction of apoptosis in human PANC1 cells assessed as accumulation at sub-G0/G1 phase at 20 uM after 48 hrs by propidium iodide staining based flow cytometry (reference value: 0.2 to 2.9%)
Type: functional
Settings: not given

Question: For `CCCCCCCCCCCCCCCCOC[C@H]1NC[C@H](O)[C@@H]1O`, which Activity is on record?
Answer: The Activity was 4.8%.

Tested on: BXPC-3
Assay: Induction of apoptosis in human BxPC3 cells assessed as accumulation at sub-G0/G1 phase at 20 uM after 72 hrs by propidium iodide staining based flow cytometry (reference value: 3.4%)
Type: functional
Settings: not given

Question: With `CCCCCCCCCCCCCCCCOC[C@H]1NC[C@H](O)[C@@H]1O` as the compound, how does the Activity read?
Answer: The Activity was 21.7%.

Tested on: BXPC-3
Assay: Induction of apoptosis in human BxPC3 cells assessed as accumulation at sub-G0/G1 phase at 20 uM after 48 hrs by propidium iodide staining based flow cytometry (reference value: 2.8%)
Type: functional
Settings: not given

Question: For `CCCCCCCCCCCCCCCCOC[C@H]1NC[C@H](O)[C@@H]1O`, which Activity is on record?
Answer: Its Activity is 16.9%.

Tested on: PK9
Assay: Induction of apoptosis in human PK9 cells assessed as accumulation at sub-G0/G1 phase at 20 uM after 24 hrs by propidium iodide staining based flow cytometry (reference value: 2.2%)
Type: functional
Settings: not given

Question: With `CCCCCCCCCCCCCCCCOC[C@H]1NC[C@H](O)[C@@H]1O` as the compound, how does the Activity read?
Answer: Its Activity is 2.6%.

Tested on: not listed separately
Assay: Induction of apoptosis in HPNE cells assessed as accumulation at sub-G0/G1 phase at 20 uM after 72 hrs by propidium iodide staining based flow cytometry (reference value: 6.6%)
Type: cell-based
Settings: human

Question: Which Activity does the source give for `CCCCCCCCCCCCCCCCOC[C@H]1NC[C@H](O)[C@@H]1O` here?
Answer: Its Activity is 66.8%.

Tested on: SK-BR-3
Assay: Growth inhibition of human SKBR3 cells after 72 hrs
Type: functional, cell-based
Settings: SK-BR-3, 72 h

Question: With `CCCCCCCCCCCCCCCCOC[C@H]1NC[C@H](O)[C@@H]1O` as the compound, how does the IC50 read?
Answer: Its IC50 is 50 µM.

Tested on: BXPC-3
Assay: Induction of apoptosis in human BxPC3 cells assessed as accumulation at sub-G0/G1 phase harboring pSFFV-Bcl-XL at 20 uM after 72 hrs by propidium iodide staining based flow cytometry (reference value: 1.3%)
Type: functional
Settings: not given

Question: With `CCCCCCCCCCCCCCCCOC[C@H]1NC[C@H](O)[C@@H]1O` as the compound, how does the Activity read?
Answer: Its Activity is 7.6%.

Tested on: BXPC-3
Assay: Induction of apoptosis in human BxPC3 cells harboring pSFFV-Bcl-XL assessed as accumulation at sub-G0/G1 phase at 10 uM after 72 hrs by propidium iodide staining based flow cytometry (reference value: 2%)
Type: functional
Settings: not given

Question: With `CCCCCCCCCCCCCCCCOC[C@H]1NC[C@H](O)[C@@H]1O` as the compound, how does the Activity read?
Answer: Its Activity is 5.8%.

Tested on: BXPC-3
Assay: Induction of apoptosis in human BxPC3 cells assessed as accumulation at sub-G0/G1 phase at 10 uM after 48 hrs by propidium iodide staining based flow cytometry (reference value: 2.8%)
Type: functional
Settings: not given

Question: With `CCCCCCCCCCCCCCCCOC[C@H]1NC[C@H](O)[C@@H]1O` as the compound, how does the Activity read?
Answer: Its Activity is 5.7%.

Tested on: BXPC-3
Assay: Induction of apoptosis in human BxPC3 cells harboring pSFFV-Bcl-XL assessed as accumulation at sub-G0/G1 phase at 10 uM after 48 hrs by propidium iodide staining based flow cytometry (reference value: 1.9%)
Type: functional
Settings: not given

Question: Which Activity does the source give for `CCCCCCCCCCCCCCCCOC[C@H]1NC[C@H](O)[C@@H]1O` here?
Answer: The Activity was 4.2%.

Tested on: not listed separately
Assay: Induction of apoptosis in HPNE cells assessed as accumulation at sub-G0/G1 phase at 20 uM after 24 hrs by propidium iodide staining based flow cytometry (reference value: 0.6%)
Type: cell-based
Settings: human

Question: With `CCCCCCCCCCCCCCCCOC[C@H]1NC[C@H](O)[C@@H]1O` as the compound, how does the Activity read?
Answer: Its Activity is 53.9%.

Tested on: BXPC-3
Assay: Induction of apoptosis in human BxPC3 cells assessed as accumulation at sub-G0/G1 phase at 10 uM after 72 hrs by propidium iodide staining based flow cytometry (reference value: 3.4%)
Type: functional
Settings: not given

Question: For `CCCCCCCCCCCCCCCCOC[C@H]1NC[C@H](O)[C@@H]1O`, which Activity is on record?
Answer: Its Activity is 7.5%.

Tested on: PK9
Assay: Induction of apoptosis in human PK9 cells assessed as accumulation at sub-G0/G1 phase at 10 uM after 48 hrs by propidium iodide staining based flow cytometry (reference value: 3.8%)
Type: functional
Settings: not given

Question: For `CCCCCCCCCCCCCCCCOC[C@H]1NC[C@H](O)[C@@H]1O`, which Activity is on record?
Answer: The Activity was 3.5%.

Tested on: PANC-1
Assay: Induction of apoptosis in human PANC1 cells assessed as accumulation at sub-G0/G1 phase at 10 uM after 24 hrs by propidium iodide staining based flow cytometry (reference value: 0.6 to 0.7%)
Type: functional
Settings: not given

Question: Which Activity does the source give for `CCCCCCCCCCCCCCCCOC[C@H]1NC[C@H](O)[C@@H]1O` here?
Answer: Its Activity is 3.1%.

Tested on: BXPC-3
Assay: Induction of apoptosis in human BxPC3 cells assessed as accumulation at sub-G0/G1 phase at 20 uM after 24 hrs by propidium iodide staining based flow cytometry (reference value: 2.3%)
Type: functional
Settings: not given

Question: For `CCCCCCCCCCCCCCCCOC[C@H]1NC[C@H](O)[C@@H]1O`, which Activity is on record?
Answer: Its Activity is 7.1%.

Tested on: BXPC-3
Assay: Induction of apoptosis in human BxPC3 cells harboring pSFFV-Bcl-XL assessed as accumulation at sub-G0/G1 phase at 10 uM after 24 hrs by propidium iodide staining based flow cytometry (reference value: 1.5%)
Type: functional
Settings: not given

Question: For `CCCCCCCCCCCCCCCCOC[C@H]1NC[C@H](O)[C@@H]1O`, which Activity is on record?
Answer: Its Activity is 3.9%.

Tested on: PK9
Assay: Induction of apoptosis in human PK9 cells assessed as accumulation at sub-G0/G1 phase at 20 uM after 48 hrs by propidium iodide staining based flow cytometry (reference value: 3.8%)
Type: functional
Settings: not given

Question: Which Activity does the source give for `CCCCCCCCCCCCCCCCOC[C@H]1NC[C@H](O)[C@@H]1O` here?
Answer: Its Activity is 4.6%.

Tested on: not listed separately
Assay: Induction of apoptosis in HPNE cells assessed as accumulation at sub-G0/G1 phase at 10 uM after 72 hrs by propidium iodide staining based flow cytometry (reference value: 6.6%)
Type: cell-based
Settings: human

Question: With `CCCCCCCCCCCCCCCCOC[C@H]1NC[C@H](O)[C@@H]1O` as the compound, how does the Activity read?
Answer: Its Activity is 3.1%.

Tested on: PANC-1
Assay: Induction of apoptosis in human PANC1 cells assessed as accumulation at sub-G0/G1 phase at 20 uM after 24 hrs by propidium iodide staining based flow cytometry (reference value: 0.6 to 0.7%)
Type: functional
Settings: not given

Question: Which Activity does the source give for `CCCCCCCCCCCCCCCCOC[C@H]1NC[C@H](O)[C@@H]1O` here?
Answer: The Activity was 4.4%.

Tested on: not listed separately
Assay: Induction of apoptosis in HPNE cells assessed as accumulation at sub-G0/G1 phase at 20 uM after 48 hrs by propidium iodide staining based flow cytometry (reference value: 0.7%)
Type: cell-based
Settings: human

Question: For `CCCCCCCCCCCCCCCCOC[C@H]1NC[C@H](O)[C@@H]1O`, which Activity is on record?
Answer: The Activity was 62.1%.

Tested on: PANC-1
Assay: Induction of apoptosis in human PANC1 cells assessed as accumulation at sub-G0/G1 phase at 10 uM after 72 hrs by propidium iodide staining based flow cytometry (reference value: 1.6 to 3.2%)
Type: functional
Settings: not given

Question: With `CCCCCCCCCCCCCCCCOC[C@H]1NC[C@H](O)[C@@H]1O` as the compound, how does the Activity read?
Answer: The Activity was 4.1%.

Tested on: PK9
Assay: Induction of apoptosis in human PK9 cells assessed as accumulation at sub-G0/G1 phase at 10 uM after 72 hrs by propidium iodide staining based flow cytometry (reference value: 4%)
Type: functional
Settings: not given

Question: With `CCCCCCCCCCCCCCCCOC[C@H]1NC[C@H](O)[C@@H]1O` as the compound, how does the Activity read?
Answer: The Activity was 2.6%.

Tested on: BXPC-3
Assay: Induction of apoptosis in human BxPC3 cells assessed as accumulation at sub-G0/G1 phase at 10 uM after 24 hrs by propidium iodide staining based flow cytometry (reference value: 1.8%)
Type: functional
Settings: not given

Question: Which Activity does the source give for `CCCCCCCCCCCCCCCCOC[C@H]1NC[C@H](O)[C@@H]1O` here?
Answer: The Activity was 3.5%.

From ChEMBL document CHEMBL4196088, “Induction of cell killing and autophagy by amphiphilic pyrrolidine derivatives on human pancreatic cancer cells” (Eur J Med Chem, 2018)
